Assays:
Substance-P receptor = Substance-P receptor (Homo sapiens, UniProt P25103); assay: Binding affinity towards Tachykinin receptor 1, activity expressed as Kd
[1] = Binding affinity towards human Bradykinin receptor, activity expressed as Kd

Chain of Substance-P receptor (P25103 whole entry): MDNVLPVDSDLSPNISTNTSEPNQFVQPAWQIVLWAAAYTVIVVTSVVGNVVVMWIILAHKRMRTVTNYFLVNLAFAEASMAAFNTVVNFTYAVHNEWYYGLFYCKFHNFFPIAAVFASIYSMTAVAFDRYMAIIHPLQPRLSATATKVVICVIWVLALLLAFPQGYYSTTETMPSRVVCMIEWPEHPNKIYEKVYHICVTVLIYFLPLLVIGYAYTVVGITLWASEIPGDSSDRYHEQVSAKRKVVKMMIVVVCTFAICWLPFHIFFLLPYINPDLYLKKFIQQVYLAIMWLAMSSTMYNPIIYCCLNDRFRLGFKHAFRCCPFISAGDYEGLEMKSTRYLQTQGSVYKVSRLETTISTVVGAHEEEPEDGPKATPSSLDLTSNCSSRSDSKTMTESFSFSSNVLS

Structure (SMILES) | Kd (Substance-P receptor) | Kd [1]
CCCC[N+](CCCC)(CCCC)Cc1ccc(NC(=O)[C@@H](Cc2ccc3ccccc3c2)N=C(NC2CCCCC2)NC2CCCCC2)cc1 | 290 nM | 79 nM
NCc1ccc(NC(=O)[C@@H](Cc2ccc3ccccc3c2)N=C(NC2CCCCC2)NC2CCCCC2)cc1 | – | 450 nM
N=C(N)NCc1ccc(NC(=O)[C@H](Cc2ccc3ccccc3c2)N=C(NC2CCCCC2)NC2CCCCC2)cc1 | 1100 nM | 330 nM
CCCC[N+](CCCC)(CCCC)Cc1ccc(NC(=O)[C@H](Cc2ccc3ccccc3c2)N=C(NC2CCCCC2)NC2CCCCC2)cc1 | 540 nM | 98 nM
O=C(Nc1ccc(CO)cc1)[C@H](Cc1ccc2ccccc2c1)N/C(=N/C1CCCCC1)NC1CCCCC1 | – | 2100 nM
N=C(N)NCCC[C@@H](NC(=O)C12CC3CC(CC(C3)C1)C2)C(=O)NCc1ccc(NC(=O)[C@H](Cc2ccc3ccccc3c2)N=C(NC2CCCCC2)NC2CCCCC2)cc1 | – | 990 nM
NC(N)=NCCC[C@H](N)C(=O)NCc1ccc(NC(=O)[C@H](Cc2ccc3ccccc3c2)N=C(NC2CCCCC2)NC2CCCCC2)cc1 | 1500 nM | 390 nM
CCCC[P+](CCCC)(CCCC)Cc1ccc(NC(=O)[C@H](Cc2ccc3ccccc3c2)N=C(NC2CCCCC2)NC2CCCCC2)cc1 | 670 nM | 340 nM
CCCC[P+](CCCC)(CCCC)Cc1ccc(NC(=O)[C@H](Cc2ccc3ccccc3c2)NC(=O)NC2CCCCC2)cc1 | 1300 nM | 1600 nM
CCCC[P+](CCCC)(CCCC)Cc1ccc(NC(=O)[C@@H](Cc2ccc3ccccc3c2)N=C(NC2CCCCC2)NC2CCCCC2)cc1 | 370 nM | 44 nM
O=C(Nc1ccc(CO)cc1)[C@@H](Cc1ccc2ccccc2c1)N=C(NC1CCCCC1)NC1CCCCC1 | – | 1500 nM
CC/N=C(\NCC)NCc1ccc(NC(=O)[C@H](Cc2ccc3ccccc3c2)N=C(NC2CCCCC2)NC2CCCCC2)cc1 | 1800 nM | 460 nM
NCc1ccc(NC(=O)[C@H](Cc2ccc3ccccc3c2)N=C(NC2CCCCC2)NC2CCCCC2)c(C(=O)O)c1 | 3800 nM | 690 nM
NCc1ccc(N(CCC(=O)O)C(=O)[C@H](Cc2ccc3ccccc3c2)N=C(NC2CCCCC2)NC2CCCCC2)cc1 | – | 1500 nM
N=C(N)NCc1ccc(NC(=O)[C@@H](Cc2ccc3ccccc3c2)N=C(NC2CCCCC2)NC2CCCCC2)cc1 | 860 nM | 200 nM
NCc1ccc(NC(=O)[C@H](Cc2ccc3ccccc3c2)N=C(NC2CCCCC2)NC2CCCCC2)cc1 | 1300 nM | 800 nM
NC(N)=NCCC[C@@H](N)C(=O)NCc1ccc(NC(=O)[C@H](Cc2ccc3ccccc3c2)N=C(NC2CCCCC2)NC2CCCCC2)cc1 | – | 230 nM

From ChEMBL document CHEMBL1130491, “Nonpeptide bradykinin antagonist analogs based on a model of a Sterling-Winthrop nonpeptide bradykinin antagonist overlapped with cyclic hexapeptide bradykinin antagonist peptides” (Bioorg Med Chem Lett, 1997)
